Tests used:
[1] = tested on: IP L1210/Cisplatin; assay: Activity against IP-implanted L1210/Cisplatin leukemia resistant to cisplatin, 30 day test (Table 3); assay type: in vivo, Female CD2Fl mice
Description: (§1) Biological properties of the compounds of the present invention were determined following the protocol described in Cancer Chemotherapy Reports, Vol. 3, No. 3, 1972 which report is incorporated herein by reference.
Other known mechanisms of resistance for other classes of agents, such as gene amplification or target enzyme change or amplication, also need to be explored. The experiments summarized in Table 3 were conducted at the same time against both sublines using the same drug preparations. […] These experiments were repeated in a second laboratory as documented in Table 4. However, in these experiments the animals were held for 60 rather than 30 days to evaluate whether or not long-term survivors are produced after drug treatment in a more challenging setting.
This experiment (A8-00005 3LE31) was conducted at the Southern Research Institute, Birmingham, Ala. under the supervision of Dr. Daniel Griswold. The protocols were the same as those published previously (Geran et al., Cancer Chemotherapy Reports 3: No. 2, 1972 [Attachment 11]). 10^5 cells were implanted intraperitoneally in CD2Fl male mice on Day 0. Drug treatments were given intraperitoneally as single injections at the doses indicated on Days 1, 5 and 9 after tumor implantation. The diluent was saline except for NSC-271674 where 5% sodium bicarbonate was used. All drugs were prepared fresh on the day of injection, and all were administered in solution. Median survival times for both control and drug-treated mice were determined and expressed as a percentage (% T/C). Body weights were determined on Day 5 and expressed as a weight difference (body weight of the drug-treated animals minus that of the control animals in grams) (T-C). The diluent control animals lived a median of 8.4 days and gained 1.9 grams by Day 5 in this experiment. All animals, including Day 30 survivors, were used in the calculation of median survival times. The log10 change in tumor burden refers to the net log change in viable tumor cell population at the end of therapy (Rx) as compared to the start of therapy; e.g., a […] means that there was a […] and a 3 log change means there was a 1000-fold increase in tumor burden at the end of therapy. The tumor burden at the start of therapy was about 6.1×10^5 cells in this experiment. […]

[2] = tested on: SC Implanted L1210 Leukemia; assay: Activity against SC implanted L1210 leukemia following intravenous administration, once daily Days 1-5 (Table 5); assay type: in vivo, CD2Fl male mice
Description: as §1
In another type of experiment the same platinum complexes were directly compared against the SC implanted L1210 following intravenous administration (Table 5).
This experiment (A8-00004 3LE32) was conducted at the Southern Research Institute, Birmingham, Ala. under the supervision of Dr. Daniel Griswold. The protocols were the same as those published previously (Attachment 11). 10^6 cells were implanted subcutaneously in CD2Fl male mice on Day 0. Drug treatments were given intravenously once daily at the doses indicated on Days 1-5 after tumor implantation. The dosage range tested included the highest and lowest doses indicated in the Table as well as intermediate values which were determined by multiplying each dose in turn by 0.5 starting with the highest dose. The diluent was saline except for NSC-271674 for which 5% sodium bicarbonate was used. All drugs were prepared fresh on the day of injection, and all were administered in solution. Median survival times for both control and drug-treated mice were determined and expressed as a percentage (% T/C). Body weights were determined on Day 5 and expressed as a weight difference (body weight of the drug-treated animals minus that of the control animals in grams) (T-C).

[3] = tested on: bacteriophage lambda (lambda-lac Z fusion prophage); assay: Biochemical phage induction assay (BIA), induction of bacteriophage lambda (FIG. 1); assay type: cell-based, E. coli (BR 513)
Description: The platinum complexes are tested using the BIA quantitative tube assay for dose-dependent induction of bacteriophage lambda according to a previously published procedure of Sarma, D. et al. Chem. Biol. Interactions, 46: 219-232 (1983), which is incorporated herein by reference. A permeable strain of E. coli (BR 513) containing lambda phage is used to test all samples. Expression time for the assay is 5 hours at 38° C. Fresh dilutions of test samples are made in saline (0.85%) on the day of the experiment. Samples are made at 10×final concentration and dispensed according to assay procedure. Final concentrations are 300 μg/ml, 200 μg/ml, 100 μg/ml, 60 μg/ml, 25 μg/ml, 10 μg/ml and a zero control.
This strain of bacteria contains a chromosomally integrated lambda-lac Z fusion phage under control of the lambda repressor. Treatment with DNA-damaging agents leads to derepression of prophage and synthesis of β-galacto-sidase, product of the lac Z gene. β-galactosidase is detected by reaction with a substrate (O-nitrophenyl-D-galactopyranoside (ONPG)) to give a yellow-colored product. Tubes are incubated at 28° C. (a few minutes to several hours to an A420 ≈0.5-1.0). Color development is stopped by the addition of base (1M Na2 CO3), and the yellow color is measured by absorbance at 420 nm. The exact time required for color development is recorded. Enzyme Units=100 A420 /thr where A420 =absorbance at 420 nm; thr =time required to develop yellow color in hours. One enzyme unit is the approximate value of an uninduced control tube at zero time.
This assay detects a wide variety of compounds which interact with DNA. […] This finding may support the hypothesis that platinum IV complexes are chemically less reactive. However, in vivo there is evidence that platinum IV complexes may be reduced to platinum (II) complexes [Pendyala, L. Proceedings 13th International Cancer Congress, Seatle, Wash., #3034, page 531, (1982)]. […] It is noted that the four isomers are not equal in their ability to induce the prophage.

[4] = tested on: IP-Implanted L1210/Cisplatin; assay: Comparison of isomers: long term survivors and weight differences in treating IP-implanted L1210/Cisplatin (Table 6); assay type: in vivo, mice
Description: Comparative data for the others are as follows: 27 for trans d, 27 for trans d l and 13 for cis. […] The higher the ratio the more convenient it is to prepare a formulation for intravenous administration to patients which is shown in Table 7.

[5] = tested on: L1210 and L1210/Cisplatin leukemia; assay: Total number of long-term survivors in Tables 2-4; assay type: in vivo, CD2Fl mice; conditions: Tables 2-4 summed
Description: If one summarizes the data in Tables 2-4 by totalling the number of long-term survivors, unexpected differences among the isomers become apparent. For example, the trans l compound produced 30 long-term survivors.

[6] = tested on: IP L1210 leukemia; assay: Mouse optimal (highest tolerated) dose, IP L1210 leukemia, Days 1, 5 and 9 schedule (Table 7); assay type: in vivo
Description: *IP L1210 leukemia, Days 1, 5 and 9 schedule. Highest tolerated dose in a
least 2 of 3 experiments (i.e,. animal weight difference (testcontrol)

[Cl][Pt]1([Cl])([Cl])([Cl])[NH]C2CCCCC2[NH]1 (stereo not drawn) [trans (d, l), (d,l)-Tetrachloro-trans-1,2-cyclohexanediamine platinum (IV)]
30 Day Survivors/Total ([1]; 1 mg/kg/dose): 0/6
Approx. Log10 Change in Tumor Burden at End of RX ([1]; 1 mg/kg/dose): ~2.8 log10
Median % T/C ([1]; 1 mg/kg/dose): 115%
30 Day Survivors/Total ([1]; 2 mg/kg/dose): 0/6
Approx. Log10 Change in Tumor Burden at End of RX ([1]; 2 mg/kg/dose): ~2.8 log10
Median % T/C ([1]; 2 mg/kg/dose): 118%
30 Day Survivors/Total ([1]; 4 mg/kg/dose): 2/6
Approx. Log10 Change in Tumor Burden at End of RX ([1]; 4 mg/kg/dose): ~-3.4 log10
Median % T/C ([1]; 4 mg/kg/dose): 225%
30 Day Survivors/Total ([1]; 8 mg/kg/dose): 4/6
Approx. Log10 Change in Tumor Burden at End of RX ([1]; 8 mg/kg/dose): ~-5.9 log10
Median % T/C ([1]; 8 mg/kg/dose): 322%
30 Day Survivors/Total ([1]; 16 mg/kg/dose): 1/6
Median % T/C ([1]; 16 mg/kg/dose): 110%
Optimal Dose ([2]; IV once daily Days 1-5): 2.5 mg/kg/inj
Effectiveness in inducing prophage [3]: intermediate in effectiveness
Prophage induction, enzyme units [3]: about 68 enzyme units
Total Grams of Weight Difference [4]: -10.0 Grams
Total number of long-term survivors [4]: 12
Total number of long-term survivors [5]: 27
Mouse Optimal Dose (highest tolerated dose in at least 2 of 3 experiments) [6]: 8 mg/kg

N[C@@H]1CCCC[C@H]1N.O=C([O-])c1ccc(C(=O)[O-])c(C(=O)[O-])c1.[H+].[Pt+2] [Carboxyphthalato Platinum, carboxyphthalatocyclohexanediamine platinum (II), reference compound]
30 Day Survivors/Total ([1]; 3.13 mg/kg/dose): 2/6
Approx. Log10 Change in Tumor Burden at End of RX ([1]; 3.13 mg/kg/dose): ~2.4 log10
Median % T/C ([1]; 3.13 mg/kg/dose): 139%
30 Day Survivors/Total ([1]; 6.25 mg/kg/dose): 4/6
Approx. Log10 Change in Tumor Burden at End of RX ([1]; 6.25 mg/kg/dose): ~-5.9 log10
Median % T/C ([1]; 6.25 mg/kg/dose): 322%
30 Day Survivors/Total ([1]; 12.5 mg/kg/dose): 4/6
Approx. Log10 Change in Tumor Burden at End of RX ([1]; 12.5 mg/kg/dose): ~-5.9 log10
Median % T/C ([1]; 12.5 mg/kg/dose): 322%
30 Day Survivors/Total ([1]; 25 mg/kg/dose): 2/6
Approx. Log10 Change in Tumor Burden at End of RX ([1]; 25 mg/kg/dose): ~-5.9 log10
Median % T/C ([1]; 25 mg/kg/dose): 304%
30 Day Survivors/Total ([1]; 50 mg/kg/dose): 1/6
Median % T/C ([1]; 50 mg/kg/dose): 129%
Reduction in tumor burden over the course of therapy ([1]; L1210/Cisplatin): at least -5.9 logs
30-day survivors ([1]; tolerated doses): three or more 30-day survivors
Body Weight Difference ([2]; 6.25 mg/kg/inj IV): -2.6 Grams
Median % T/C ([2]; 6.25 mg/kg/inj IV): 124%
Median Survival Time ([2]; 6.25 mg/kg/inj IV): 12.8 days
Body Weight Difference ([2]; 12.5 mg/kg/inj IV): -6.1 Grams
Median % T/C ([2]; 12.5 mg/kg/inj IV): 165%
Median Survival Time ([2]; 12.5 mg/kg/inj IV): 17.0 days
HNTD (highest nontoxic dose; animal weight difference ≥ -4.0 grams) ([2]; IV once daily Days 1-5): 6.25 mg/kg/inj
Optimal Dose ([2]; IV once daily Days 1-5): 12.5 mg/kg/inj
Mouse Optimal Dose (highest tolerated dose in at least 2 of 3 experiments) [6]: 12.5 mg/kg
